Reference: US9006445B2, “Polymorphic form of pridopidine hydrochloride” (Ivax International GmbH, priority 2011, dated 2015)
Read-outs that look alike come from different tables or passages of the source.

Legend:
[1] = conclusion from calculated Tt and seeding experiment
Method: (§1) In order to confirm this finding experimentally, a seeding experiment was carried out, where mixtures of the two forms were slurried in an organic solvent for 4 hours at various temperatures.

[2] = 25° C.
Method: Dynamic vapour sorption (DVS) measurements were conducted using a Q5000 SA from TA instruments.
Experiments were conducted in two sorption/desorption cycles between 0% RH and 95% RH. Prior to the first sorption cycle the sample was equilibrated at 20% RH and the initial weight recorded. Samples were analyzed in an aluminium pan. Humidity was brought down to 0% RH and the sample dried until the weight had stabilized within a given limit. The temperature was held constant at 25° C. Maximum step time was 720 min. Gas flow was 200 cm3/min.

[3] = triplicate; for bulk density: 50.0 g sample; for tapped density: 2500 taps at 100 taps/min
Method: Density determinations were performed as described in Ph. Eur. 2.9.34. The method was modified as the sample amount placed in the 250 ml volumetric glass cylinder was 50.0 g and 2500 taps were run at 100 taps/min. The measurements were done in triplicate.

[4] = mixtures of the two forms slurried in organic solvent for 4 hours, XRPD
Method: as §1

[5] = for Particle size D10 / Particle size D50 / Particle size D90: image analysis; for Aspect ratio AR10 / Aspect ratio AR50 / Aspect ratio AR90: longest divided by shortest particle dimension
Method: Microscopic analysis was carried out using a Zeiss Axiolab microscope (Carl Zeiss, Göttingen, Germany). Photomicrographs were captured using a DeltaPix digital camera and Deltapix software version 1.6 (Maaloev, Denmark). […] The particle size was determinated using Motic Image Plus 2.0 software (Motic Group Inc, China), calibrated to pictures of reference scales taken with the used objectives.

Structure (SMILES): CCCN1CCC(c2cccc(S(C)(=O)=O)c2)CC1 [Form I, 4-(3-methanesulfonyl-phenyl)-1-propyl-piperidine]
- temperature at which the form is the thermodynamically most stable form [1]: above 127 °C
- hygroscopicity (DVS) ([2]; below 80% RH): non-hygroscopic
- hygroscopicity (DVS) ([2]; in excess of 80% RH): deliquescent
- bulk density [3]: 0.212 g/mL
- tapped density [3]: 0.264 g/mL
- temperature at which the polymorphic outcome of slurrying was this form [4]: below 125 °C
- Particle size D10 [5]: 9 μm
- Particle size D50 [5]: 21 μm
- Particle size D90 [5]: 42 μm
- Aspect ratio AR10 [5]: 1.6
- Aspect ratio AR50 [5]: 3.1
- Aspect ratio AR90 [5]: 5.8

Structure (SMILES): CCCN1CCC(c2cccc(S(C)(=O)=O)c2)CC1.Cl [Form II, 4-(3-methanesulfonyl-phenyl)-1-propyl-piperidine hydrochloride salt]
- temperature at which the form is the thermodynamically most stable form [1]: above 127 °C
- hygroscopicity (DVS) ([2]; below 80% RH): non-hygroscopic
- hygroscopicity (DVS) ([2]; in excess of 80% RH): deliquescent
- bulk density [3]: 0.382 g/mL
- tapped density [3]: 0.486 g/mL
- temperature at which the polymorphic outcome of slurrying was this form [4]: above 130 °C
- Particle size D10 [5]: 49 μm
- Particle size D50 [5]: 170 μm
- Particle size D90 [5]: 363 μm
- Aspect ratio AR10 [5]: 1.1
- Aspect ratio AR50 [5]: 1.6
- Aspect ratio AR90 [5]: 2.9
